# Where a SMILES comes first, the peptide text is derived from it.
# How the values were obtained:
# Type in all cases: cell-based, human
# HUVEC cells [1] = assay: Formation of capillary pseudotubes on Matrigel; settings: 20 μM
# Method: The in vitro anti-angiogenic activity of the cyclopeptide YSNSG (SEQ ID NO: 3) was measured on the formation of capillary pseudotubes by endothelial HMEC-1 or HUVEC cells deposited on a Matrigel mat.
# A solution of Matrigel (ECM gel: 10 mg/ml) was deposited in a sterile manner in 24-well plates (Nunclon) in an amount of 250 μl per well onto piled ice. Gel formation was obtained by incubating the plate at 37° C. for 30 min. HMEC-1 cells or HUVEC cells at sub-confluence were detached from their plastic culture support by adding trypsin/EDTA then taken up into suspension in the culture medium for endothelial cells and diluted to a concentration of 2×10^5 cells per ml. 100 μl volumes of this cell suspension were deposited on the gel surface. After incubating for 1 hour at 37° C. to allow cell adhesion, the various peptides were added in solution to 400 μl of the culture medium (final concentration 10 or 20 μM). Pseudotube formation was observed under the microscope and photographed, after incubating for 24 hours. Quantification was carried out using image analysis software.
# HUVEC cells [2] = assay: Scar wounding technique (artificial wound model); settings: 48 h incubation, 20 μM
# Method: FIG. 18: In vitro inhibition of HUVEC cell migration in the presence of YSNSG (SEQ ID NO: 3) cyclopeptide. Microscope photographs of artificial wounds produced on a monolayer of endothelial cells at T0 and T48h in the absence of peptide (control) or in the presence of 20 μM of YSNSG (SEQ ID NO: 3) cyclopeptide;
# 1×10^5 endothelial cells were seeded into 24-well plates and incubated for 24 hours at 37° C. A wound was made in the cellular monolayer at the centre of the well using a 200 μl cone point. The cells were washed with PBS to eliminate cell debris then incubated in the presence or absence of the cyclopeptide YSNSG (SEQ ID NO: 3). Closing of the wound, a witness to the migratory properties of the cells, was observed under the microscope and photographed after 48 hours incubation.
# HUVEC cells [3] = assay: HUVEC cell proliferation
# u-PA = assay: Zymography in the presence of gelatine and plasminogen, HUVEC conditioned medium; settings: 20 μM
# Method: FIG. 20: Effect of YSNSG (SEQ ID NO: 3) cyclopeptide on the secretion of plasminogen activators. The secretion of u-PA and t-PA was analyzed by zymography in the presence of gelatine and plasminogen (A) in a medium conditioned by HUVEC cells in the absence (control) or in the presence of 20 μM of cyclopeptide YSNSG (SEQ ID NO: 3). Quantification was carried out using Bio 1D software (B);
# To determine the plasminogen activities, conditioned media of UACC-903 cells were analyzed by polyacrylamide gel electrophoresis in the presence of SDS and containing 1 mg/ml of gelatine and 10 μg/ml of plasminogen. After electrophoresis, the gels were incubated overnight at ambient temperature in a 100 mM glycine, 5 mM EDTA, pH 8.0 buffer.
# u-PAR = assay: Western blot of u-PAR, HUVEC cells; settings: 20 μM
# Method: FIG. 21: Effect of YSNSG (SEQ ID NO: 3) cyclopeptide on the expression of the u-PA receptor: u-PAR by HUVEC cells. The secretion of u-PAR was analyzed by Western blot (A) in a medium conditioned by HUVEC cells in the absence (control) or in the presence of 20 μM of the cyclopeptide YSNSG (SEQ ID NO: 3). Quantification was carried out using Bio 1D software (B);
# The samples underwent 10% polyacrylamide gel electrophoresis in the presence of 0.1% SDS then were transferred onto Immobilon-P membranes (Millipore, St Quentin en Yvelines, France). The membranes were saturated with 5% freeze dried skimmed milk, Tween 20 0.1% in a 50 mM Tris-HCl, 150 mM NaCl buffer, pH 7.5 (TBS) for 2 hours at ambient temperature. The membranes were then incubated overnight at 4° C. with anti-MMP-14, anti-PAI-1 and anti-u-PAR antibodies then incubated for one hour at ambient temperature with a secondary antibody (anti-IgG) conjugated with peroxidase. The immune complexes were visualized with an ECL chemoluminescence detection kit.
# actin cytoskeleton = assay: Labelling actin F (phalloidin), HUVEC cells; settings: 20 μM, 48 h
# Method: (§1) FIG. 22: Effect of YSNSG (SEQ ID NO: 3) cyclopeptide on the organization of the cytoskeleton of HUVEC cells. The cells were cultivated on glass slides in the absence (control) or in the presence of 20 μM of YSNSG (SEQ ID NO: 3) cyclopeptide. After 48 h of incubation, the cells were fixed, permeabilized, incubated with phalloidin (A) or with an anti-Phospho-FAK antibody (B) then with Hoechst-33342. The slides were observed under a confocal microscope;
# The cells were seeded onto sterile glass slides placed in a 24-well plate (2×10^4 cells/well) in a suitable medium containing 5% of serum, in the presence or absence of the cyclopeptide YSNSG (SEQ ID NO: 3). After 24 and 48 hours incubation, the cells were fixed with 3.7% formaldehyde for 10 minutes at ambient temperature and permeabilized for 3 minutes with an acetone solution at −20° C. Three 5 minute washes in PBS were carried out, then the cells were incubated for 30 minutes at ambient temperature in a saturation solution (PBS containing 1% bovine serum albumin). The cells were then incubated for 1 hour with phalloidin coupled with Alexa Fluor® 568 (diluted 1/40 in PBS containing 1% BSA) then washed 3 times for 5 minutes with PBS.
# phospho-FAK = assay: Phospho-FAK immunolabelling, HUVEC cells; settings: 20 μM, 48 h
# Method: as §1
# (§2) The cells were seeded onto sterile glass slides placed in 24-well plates (2×10^4 cells/well) in a suitable medium containing 5% serum in the presence or absence of YSNSG (SEQ ID NO: 3) cyclopeptide. After 24 and 48 hours incubation, the cells were fixed for 15 minutes in methanol. Three washes of 5 minutes in TBS-T were carried out, then the cells were incubated for 30 minutes at ambient temperature in a saturation solution (TBS-T containing 3% BSA). The cells were then incubated for 2 hours at ambient temperature in the presence of primary antibody diluted to 1/100 in TBS-T containing 3% BSA.
# β1 sub-unit of integrin = assay: β1 integrin immunolabelling, HUVEC cells; settings: 20 μM, 48 h
# Method: FIG. 23: Effect of YSNSG (SEQ ID NO: 3) cyclopeptide on the distribution of β1 integrin subunits on the surface of HUVEC cells. The cells were cultivated on glass slides in the absence (control) or in the presence of 20 μM of YSNSG (SEQ ID NO: 3) cyclopeptide. After 48 h of incubation, the cells were fixed and incubated in the presence of antibodies directed against the β1 integrin subunit. The slides were observed using a confocal microscope.
# as §2
smiles,measurement,setting,value
"NC(=O)CC1NC(=O)C(CO)NC(=O)C(Cc2ccc(O)cc2)NC(=O)CNC(=O)C(CO)NC1=O (centres unmarked) [cyclopeptide YSNSG, cyclopeptide YSNSG (SEQ ID NO: 3)] (cyclo(GYSNS); configuration not given here)",inhibition of capillary pseudotube formation,HUVEC cells [1],45%
same,inhibition of the migration of the HUVEC cells,HUVEC cells [2],83%
same,cell proliferation of HUVEC cells,HUVEC cells [3],did not modify
same,reduction in the production of u-PA,u-PA,−27%
same,reduction in the production of u-PAR,u-PAR,−49%
same,organization of the actin cytoskeleton,actin cytoskeleton,modification
same,expression of the phosphorylated form of focal adhesion kinase (phospho-FAK),phospho-FAK,reduction
same,Expression of the β1 sub-unit of integrin at the cellular periphery,β1 sub-unit of integrin,enhanced
